# Laboratory results from patent US20210230101A1, “COMPOUNDS FOR TREATING DENGUE VIRUS INFECTIONS AND OTHER INFECTIONS” (Dana-Farber Cancer Institute, Inc., priority 2018, published 2021).
# Where two headings read alike, the source gives them in different places.
# Assays:
# His6-tagged DENV2 sE2 = His6-tagged DENV2 sE2 (Dengue virus type 2, UniProt P14340); experiment: AlphaScreen competition assay (GNF2-biotin probe vs. envelope protein); format: binding, Dengue virus 2 (DENV2)
# Description: Known DENV inhibitors to develop an AlphaScreen assay designed to identify compounds that compete for binding on envelop protein. The AlphaScreen is a bead-based proximity assay that permits measurement of biomolecular interactions of pico- to milli-molar affinities in microplate format. Following excitation of donor beads, energy is transferred to acceptor beads if analytes conjugated to donor and acceptor beads interact. […] We performed cross-titration experiments to optimize the molar concentrations of the probe (GNF2-biotin) and envelope glycoprotein for the assay. We also tested different orders of the addition of the assay components to achieve the best signal-to-noise ratio.
# DENV [1] = experiment: Antiviral activity: viral infectivity assay (single-cycle viral yield); format: cell-based; conditions: Dengue virus; concentration that reduces single-cycle viral yield by 10-fold
# Method: The term “IC90” refers to the concentration of an antiviral agent that reduces single-cycle viral yield by 10-fold.
# For the viral infectivity assay, virus inocula were diluted in EBSS to achieve a multiplicity of infection (MOI) of 1, and were pre-incubated with the given small molecule at varying concentrations for 45 min at 37° C. The mixture was then added to cells for 1 hour at 37° C. to allow infection, after which the inoculum was removed and the cells were washed with 1×PBS to remove unbound virus and compound. Cells were overlaid with medium lacking inhibitor and incubated at 37° C. for 20-24 hours, corresponding to a single cycle of infection. Culture supernatants were harvested at this time, and the yield of infectious particles produced was quantified by plaque-forming assay. For initial antiviral screening of HTS “hits,” compounds were tested for activity at 3 and 10 μM. For IC90 value determination, viral yield (plaque-forming units per milliliter) was plotted versus the log of the inhibitor concentration, and non-linear regression analysis of the data (Graphpad Prism) was performed to determine the concentration at which viral yield is reduced 10-fold.
# [2] = Pharmacokinetic (PK) studies; conditions: mouse, in vivo
# Method: FIG. 3. Pharmacokinetic (PK) data for S4105. The compound has a volume of distribution of 0.06 L/kg, which is essentially the blood volume of a mouse, implying that the compound may be sequestered in the plasma. […] The intraperitoneal (IP) dose was well absorbed. 8 hours after the IP dose of 20 mg/kg the plasma concentration for the three mice ranged from 75-200 μM. Even if the compound is 99.95% plasma protein bound, this would still give a free fraction of about 50 nM.
# FIG. 4. PK data for ZNL-01-132. The compound has a long half-life in plasma of 5-6 hours. After IP dosing at 20 mg/kg high concentrations were achieved and 8 hours post dose the levels were approximately 2 μM.
# PK studies were performed on compounds S4105 and ZNL-01-132.
# AmpC β-lactamase = molecular target: T1, AmpC β-lactamase (Escherichia coli, UniProt P00811); experiment: AmpC beta-lactamase non-specific enzyme inhibition assay; format: biochemical; conditions: IC50/μM vs. AmpC
# T1 construct: Shoichet lab (UCSF), gift
# Method: AmpC beta-lactamase assay. The AmpC β-lactamase was a kind gift from the Shoichet lab (UCSF). The inhibitor was serially diluted (two-fold dilution series from 100 μM) and pre-incubated with 10 nM enzyme in working buffer (50 mM potassium phosphate, pH 7.0) at room temperature for 5 min. Nitrocefin (100 μM, VWR) was added to the solution and carefully mixed. Absorbance of the final mixture was immediately monitored at 470 nm for 3 min.
# For both AmpC and MDH assays, the final concentration of DMSO was 2% for all samples. All assays were repeated in the presence of 0.01% Triton X-100. IC50 values of 3-110-22 presented in Table 2 are representative data from two independent experiments; values for the other lead compounds were measured once for each enzymatic assay.
# [3] = Cytotoxicity (CellTiter-Glo); format: cell-based; conditions: hamster, BHK21 cells, read-out: CC50/μM (toxicity)
# Method: The term “CC50” refers to the concentration of an antiviral agent that causes 50% loss of cell viability.
# BHK21 cells (MEM with 2% FBS) were incubated with varying concentrations of inhibitor in a 96-well white plate for 24 hours at 37 degrees C. and 5% CO2. CellTiter-Glo (Promega) solution was used to measure viability following the manufacturer's instructions. Luminescence was measured using a Biotek Synergy plate reader. Data were plotted versus the log10 inhibitor concentration, and non-linear regression analysis (Graphpad Prism) was used to determine CC50 values, defined as the inhibitor concentration required to cause 50% loss of cell viability. The maximum concentration tested was 100 μM. Values presented in Table 1 are the average of two or more independent experiments.
# DENV [4] = experiment: PRNT plaque reduction assay; format: cell-based; conditions: Dengue virus; plaque reduction by 50%; virus not given
# Method: For plaque reduction assays, DENV1, 2, 3, 4 were tested on BHK-21 cells, and ZIKV was tested on Vero cells. Vims inocula were diluted in EBSS to 2500 pfu/ml as the final concentration, and were pre-incubated with different concentrations of small molecule inhibitors (2% DMSO vol/vol final concentration) for 45 min at 37° C., 5% CO2. The mixture (200 μl, 500 pfu of virus) was then added to cells for 1 hour (37° C., 5% CO2) to allow infection, after which the inoculum was removed, and the cells were washed with 1×PBS to remove unbound virus and compound. Cells were overlaid with carboxylmethylcellulose and incubated at 37° C., 5% CO2 to allow the formation of plaques (4 days for DENV1, 2, 3, 4 and 2-3 days for ZIKV). The cells were fixed and plaques visualized by staining of the cell monolayers with crystal violet. Empirical analysis was performed to determine the PRNT50 value, defined as the inhibitor concentration needed to reduce plaque formation by 50%.
# VSV-eGFP = VSV-eGFP counter screen; format: cell-based
# [5] = TX, in the presence of 0.01% Triton X-100
# T1 sequence (P00811 20-377): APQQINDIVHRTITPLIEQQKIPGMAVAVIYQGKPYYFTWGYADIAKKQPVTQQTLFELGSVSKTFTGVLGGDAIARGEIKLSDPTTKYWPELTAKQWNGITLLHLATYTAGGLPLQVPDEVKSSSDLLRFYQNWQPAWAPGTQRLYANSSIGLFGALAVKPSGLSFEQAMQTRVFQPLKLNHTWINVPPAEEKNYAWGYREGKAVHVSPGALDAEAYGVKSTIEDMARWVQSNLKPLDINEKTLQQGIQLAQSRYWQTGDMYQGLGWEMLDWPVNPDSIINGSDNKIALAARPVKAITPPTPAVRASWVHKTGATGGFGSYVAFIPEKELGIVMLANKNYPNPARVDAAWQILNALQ
Structure (SMILES),IC50 (His6-tagged DENV2 sE2) [µM],IC90 (DENV [1]) [µM],"IC50 (AmpC β-lactamase; No TX, without Triton X-100) [µM]",IC50 (AmpC β-lactamase; [5]) [µM],CC50 at 24 h [3] [µM],EC50 (DENV [4]) [µM],further results
O=C(Nc1ccc(Oc2ccc(Cl)cc2)c(Cl)c1)c1cc(I)cc(I)c1O,0.8,–,–,–,–,–,–
Cc1cc(C(C#N)c2ccc(Cl)cc2)c(Cl)cc1NC(=O)c1ccccc1O (stereo not drawn),2,8,–,–,–,–,–
"NC(=O)c1cccc(-c2cc(Nc3ccc(OC(F)(F)F)cc3)ncn2)c1 [GNF2, reference compound]",–,–,–,–,–,–,"competition of AlphaScreen signal (His6-tagged DENV2 sE2; GNF2-biotin on donor beads, His6-tagged DENV2 sE2 on acceptor beads): competed away in a dose-dependent fashion"
Cc1cc(C(C#N)c2ccc(Cl)cc2)c(Cl)cc1NC(=O)c1cc(I)cc(I)c1O (stereo not drawn) [S4105],–,–,0.3,> 100,~50,0.3,"Vd [2]: 0.06 L/kg; absorption of intraperitoneal (IP) dose ([2]; ip): well absorbed; concentration at 8 h ([2]; ip, 20 mg/kg): 75 to 200 µM; clearance ([2]; iv): 2.4 mL/h/kg; half-life ([2]; iv): 21 h"
O=C(Nc1ccc(Oc2ccc(Cl)cc2)c(Cl)c1)c1cc(F)cc(F)c1O [ZNL-01-132],4,–,38,> 100,44,0.5,"half-life [2]: 5 to 6 h; concentration at 8 h ([2]; IP 20 mg/kg, 8 hours post dose, read-out: plasma concentration 8 hours after IP dose): ~2 µM; % Inhibition Vs. VSV-eGFP, 2.5 μM (VSV-eGFP; 2.5 μM): 80%; % Inhibition Vs. VSV-eGFP, 5 μM (VSV-eGFP; 5 μM): >90%"
Cc1cc(C(C#N)c2ccc(Cl)cc2)c(Cl)cc1NC(=O)c1cc(I)cc(I)c1O (stereo not drawn) [drawing 87],0.8,1,–,–,–,–,–
